Laboratory results as given in ChEMBL document CHEMBL3045607, “Design and synthesis of novel N-substituted-3-chloro-2-azetidinone derivatives as potential anticonvulsant agents” (Med Chem Res, 2011).
Calls of active or inactive are those of the source. The calls are words filed in the database; no cut-off is given here.

Tests used:
Mus musculus [1] = assay: Neurotoxicity in Mus musculus (mouse) assessed as minimal motor impairment at 300 mg/kg, ip after 4 hr by rotarod test; format: toxicity, organism-based; set-up: dose 300 mg/kg, route intraperitoneal; details: in vivo
Mus musculus [2] = assay: Anticonvulsant activity in ip dosed Mus musculus (mouse) assessed as protection against subcutaneous pentylene tetrazole-induced seizure after 4 hr; format: functional; details: read-out: MED
Mus musculus [3] = assay: Neurotoxicity in Mus musculus (mouse) assessed as increase in immobility time at 30 mg/kg, ip administered 30 min before test measured for 5 min by forced swimming test; format: toxicity, organism-based; set-up: dose 30 mg/kg, route intraperitoneal; details: in vivo
Mus musculus [4] = assay: Anticonvulsant activity in ip dosed Mus musculus (mouse) assessed as protection against maximal electroshock-induced seizure after 0.5 hr; format: functional; details: read-out: MED
Mus musculus [5] = assay: Anticonvulsant activity in ip dosed Mus musculus (mouse) assessed as protection against maximal electroshock-induced seizure after 4 hr; format: functional; details: read-out: MED
Mus musculus [6] = assay: Neurotoxicity in Mus musculus (mouse) assessed as minimal motor impairment at 300 mg/kg, ip after 0.5 hr by rotarod test; format: toxicity, organism-based; set-up: dose 300 mg/kg, route intraperitoneal; details: in vivo
Mus musculus [7] = assay: Anticonvulsant activity in ip dosed Mus musculus (mouse) assessed as protection against subcutaneous pentylene tetrazole-induced seizure after 0.5 hr; format: functional; details: read-out: MED
Mus musculus [8] = assay: Anticonvulsant activity in Mus musculus (mouse) assessed as protection against subcutaneous pentylene tetrazole-induced seizure at 300 mg/kg, ip after 0.5 hr; format: functional, organism-based; set-up: dose 300 mg/kg
Mus musculus [9] = assay: Neurotoxicity in ip dosed Mus musculus (mouse) assessed as minimal motor impairment after 4 hr by rotarod test; format: toxicity, organism-based; details: in vivo
Mus musculus [10] = assay: Neurotoxicity in ip dosed Mus musculus (mouse) assessed as minimal motor impairment after 0.5 hr by rotarod test; format: toxicity, organism-based; details: in vivo
Mus musculus [11] = assay: Anticonvulsant activity in Mus musculus (mouse) assessed as protection against subcutaneous pentylene tetrazole-induced seizure at 300 mg/kg, ip after 4 hr; format: functional, organism-based; set-up: dose 300 mg/kg
Mus musculus [12] = assay: Anticonvulsant activity in Mus musculus (mouse) assessed as protection against maximal electroshock-induced seizure at 300 mg/kg, ip after 0.5 hr; format: functional, organism-based; set-up: dose 300 mg/kg

Row | Structure (SMILES) | Activity (Mus musculus [1]) | minimal effective dose (Mus musculus [2]) | Activity (Mus musculus [3]) | minimal effective dose (Mus musculus [4]) | minimal effective dose (Mus musculus [5]) | Activity (Mus musculus [6]) | minimal effective dose (Mus musculus [7]) | Activity (Mus musculus [8]) | MTC (Mus musculus [9]) | MTC (Mus musculus [10]) | Activity (Mus musculus [11]) | Activity (Mus musculus [12])
1 | O=C(NN1C(=O)C(Cl)C1c1ccccc1)c1ccncc1 (stereo not given) | Non-toxic | 100 mg/kg | 11.5% | 100 mg/kg | 100 mg/kg | Non-toxic | 100 mg/kg | – | – | – | – | –
2 | O=C1NC(=O)C(c2ccccc2)(c2ccccc2)N1 [PHENYTOIN] | – | – | – | 30 mg/kg | 30 mg/kg | – | – | inactive | 100 mg/kg | 100 mg/kg | inactive | –
3 | O=C(NN1C(=O)C(Cl)C1c1ccccc1[N+](=O)[O-])c1ccncc1 (stereo not given) | Non-toxic | 300 mg/kg | – | – | 300 mg/kg | Non-toxic | – | inactive | – | – | – | inactive
4 | COc1cc(C2C(Cl)C(=O)N2NC(=O)c2ccncc2)ccc1O (stereo not given) | Non-toxic | 300 mg/kg | – | 300 mg/kg | 100 mg/kg | Non-toxic | – | inactive | – | – | – | –
5 | COc1ccccc1C1C(Cl)C(=O)N1NC(=O)c1ccncc1 (stereo not given) | Non-toxic | – | – | – | 300 mg/kg | Non-toxic | – | inactive | – | – | inactive | inactive
6 | O=C(NN1C(=O)C(Cl)C1c1ccccc1O)c1ccncc1 (stereo not given) | Non-toxic | – | – | – | 300 mg/kg | Non-toxic | – | inactive | – | – | inactive | inactive
7 | COc1ccc(C2C(Cl)C(=O)N2NC(=O)c2ccncc2)cc1OC (stereo not given) | Non-toxic | 100 mg/kg | 33.83% | 100 mg/kg | 100 mg/kg | Non-toxic | 100 mg/kg | – | – | – | – | –
8 | O=C(NN1C(=O)C(Cl)C1c1ccccc1Cl)c1ccncc1 (stereo not given) | Non-toxic | – | – | – | 300 mg/kg | Non-toxic | – | inactive | – | – | inactive | inactive
9 | CN(C)c1ccc(C2C(Cl)C(=O)N2NC(=O)c2ccncc2)cc1 (stereo not given) | Non-toxic | 100 mg/kg | 49.83% | 100 mg/kg | 100 mg/kg | Non-toxic | – | inactive | – | – | – | –
10 | O=C(NN1C(=O)C(Cl)C1c1ccc(O)cc1)c1ccncc1 (stereo not given) | – | 300 mg/kg | – | – | 100 mg/kg | Non-toxic | – | inactive | 300 mg/kg | – | – | inactive
11 | Cc1ccc(C2C(Cl)C(=O)N2NC(=O)c2ccncc2)cc1 (stereo not given) | Non-toxic | 30 mg/kg | 21.66% | 30 mg/kg | 30 mg/kg | Non-toxic | 100 mg/kg | – | – | – | – | –
12 | O=C(NN1C(=O)C(Cl)C1c1ccc([N+](=O)[O-])cc1)c1ccncc1 (stereo not given) | – | 100 mg/kg | – | – | 100 mg/kg | Non-toxic | 300 mg/kg | – | 300 mg/kg | – | – | inactive
13 | O=C(NN1C(=O)C(Cl)C1c1ccc(Cl)cc1)c1ccncc1 (stereo not given) | Non-toxic | 100 mg/kg | 54.54% | 300 mg/kg | 100 mg/kg | Non-toxic | 100 mg/kg | – | – | – | – | –
14 | NC(=O)N1c2ccccc2C=Cc2ccccc21 [CARBAMAZEPINE] | – | 300 mg/kg | 30.66% | 30 mg/kg | 100 mg/kg | Non-toxic | 100 mg/kg | – | 30 mg/kg | – | – | –
